Results as given in patent US20220296595A1, “CDK INHIBITORS” (QILU REGOR THERAPEUTICS INC., priority 2019, published 2022).
Where two headings read alike, the source gives them in different places.

How the values were obtained:
CDK4/CyclinD1 = target: T1, CDK4/CyclinD1 (Homo sapiens, UniProt P11802); experiment: Assay for inhibition of CDK4/CyclinD1 (Caliper microfluidic kinase assay); assay type: biochemical
T1 construct: purchased Thermofisher PR8064A
Procedure, shortened: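 IC50 was obtained by 4-parameter sigmoidal fitting after 1 nM CDK4/CyclinD1, 200 μM ATP and 1 μM FL-34 substrate reacted for 3 h at room temperature (pH 7.5 HEPES, 10 mM MgCl2). After EDTA quench, substrate and product were separated and detected on a Caliper microfluidic chip.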

CDK6/CyclinD3 = target: T2, CDK6/CyclinD3 (Homo sapiens, UniProt Q00534); experiment: Assay for inhibition of CDK6/CyclinD3 (Caliper microfluidic kinase assay); assay type: biochemical
T2 construct: purchased Carna 04-107
T2 sequence (Q00534 whole entry): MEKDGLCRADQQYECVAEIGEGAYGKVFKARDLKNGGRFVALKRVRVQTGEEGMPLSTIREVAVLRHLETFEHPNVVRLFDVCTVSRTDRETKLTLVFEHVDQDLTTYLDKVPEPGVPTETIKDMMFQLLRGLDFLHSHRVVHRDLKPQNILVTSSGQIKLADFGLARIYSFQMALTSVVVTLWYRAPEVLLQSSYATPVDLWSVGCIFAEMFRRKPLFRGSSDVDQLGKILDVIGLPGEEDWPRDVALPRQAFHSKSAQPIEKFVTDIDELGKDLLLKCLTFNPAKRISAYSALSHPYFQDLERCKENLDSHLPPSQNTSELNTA
T2 sequence (P30281 whole entry partner): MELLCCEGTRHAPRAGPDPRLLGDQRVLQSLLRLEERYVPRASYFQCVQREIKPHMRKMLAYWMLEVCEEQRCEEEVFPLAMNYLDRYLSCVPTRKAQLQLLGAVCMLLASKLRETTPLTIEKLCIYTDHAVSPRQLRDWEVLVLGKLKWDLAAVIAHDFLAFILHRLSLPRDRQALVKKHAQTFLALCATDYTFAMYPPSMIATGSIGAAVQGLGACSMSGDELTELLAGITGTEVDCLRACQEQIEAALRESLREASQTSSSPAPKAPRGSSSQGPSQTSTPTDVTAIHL
Procedure, shortened: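 IC50s came from four-parameter dose-response fits of microfluidic substrate/product separation data. Reactions held 2 nM CDK6/CyclinD3, 300 μM ATP and 1 μM 5-FAM peptide FL-34 in pH 7.5 HEPES/MgCl2 buffer, ran 3 hours at room temperature, then were quenched with EDTA.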

CDK2/CyclinE1 = target: T3, CDK2/CyclinE1 (Homo sapiens, UniProt P24941); experiment: Assay for inhibition of CDK2/CyclinE1 (Caliper microfluidic kinase assay); assay type: biochemical; conditions: read-out: CDK2 IC50
T3 construct: purchased SignalChem C29-18G
Procedure, shortened: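 IC50 came from 4-parameter fits of substrate-to-product conversion, separated on a Caliper chip after an EDTA stop. Reactions ran 3 hours at room temperature with 100 μM ATP, 5 μM fluorescent FL-18 peptide and 5 nM enzyme in 100 mM HEPES pH 7.5, 10 mM MgCl2.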

T47D breast cancer cells = experiment: Anti-proliferation assay in T47D cell (Cyquant, day 6); assay type: cell-based, human; conditions: read-out: T47D IC50
Procedure, shortened: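 A ten-point, 3-fold compound series (10 μM down to 0.51 nM) was applied to overnight-settled cells in 10% FBS RPMI 1640, and DNA content was read by CyQuant fluorescence 6 days later. An untreated plate read before dosing served as baseline for subtraction before IC50 fitting.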

[1] = system: phosphorylation of Retinoblastoma Protein (pRb Ser807/811 or Ser780) in T47D cells; experiment: Inhibition of phosphorylation of retinoblastoma protein (pRb) in T47D cell (ELISA); assay type: cell-based, human
Description: T47D breast cancer cells from American Type Culture Collection (ATCC, HTB-133) were plated at 40,000 cells/well in 96-well plates, and were incubated in RPMI 1640 medium (Gibco, 31800105) with 10% Fetal Bovine Serum (FBS, Biowest, FB-1058). Cells were then allowed to adhere overnight at 37° C., 5% CO2. The following day, compounds were titrated in a 3-fold dilution scheme, and the highest compound concentration tested was […]. After 24 hours incubation with compounds, cells were lysed in ice-cold lysis buffer containing phosphatase inhibitor cocktail and 1 mM PMSF. Cell lysates (50 μL/well) were then transferred to ELISA plates (pRb Ser807/811 ELISA kit, Cell Signaling, 13152 or pRb Ser780 ELISA kit, Cell Signaling, 13016)). Plates were incubated overnight at 4° C., with constant slow speed shaking. After incubation, plates were washed following manufacturer's recommendations, and then 100 μL reconstituted detection antibody was added to each well and incubated for 1 hour at 37° C. After incubation, plates were washed, and then 100 μL reconstituted HRP-linked secondary antibody was added to each well and incubated for 30 mins at 37° C. After incubation, plates were washed. Then, 100 μL TMB substrate was added to each well and incubated for 10 min at 37° C. or 30 min at 25° C. Finally, 100 μL of STOP solution was added to each well and mixed gently for a few seconds. Plates were read on the Envision plate reader (PerkinElmer, 2104-0010) using the 96-well […] mode. IC50 values were calculated using 4 parameter sigmoidal dose-response model of Xlfit5/GraphPad Prism 5 software.

[2] = Homo sapiens, T47D, anti-proliferation, T47D cells
[3] = Homo sapiens, T47D, read-out: Phospho T47D Ser807 IC50, pRb Ser807 phosphorylation, T47D cells

T1 sequence (P11802 whole entry): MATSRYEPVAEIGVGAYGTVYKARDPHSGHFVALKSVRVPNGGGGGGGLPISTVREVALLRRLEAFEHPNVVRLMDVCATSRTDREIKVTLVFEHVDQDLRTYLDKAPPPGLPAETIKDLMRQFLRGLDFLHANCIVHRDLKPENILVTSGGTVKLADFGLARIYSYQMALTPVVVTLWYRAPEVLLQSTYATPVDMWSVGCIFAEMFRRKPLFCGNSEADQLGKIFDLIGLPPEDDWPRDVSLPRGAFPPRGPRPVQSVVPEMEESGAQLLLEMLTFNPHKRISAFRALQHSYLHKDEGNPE
T1 sequence (P24385 whole entry partner): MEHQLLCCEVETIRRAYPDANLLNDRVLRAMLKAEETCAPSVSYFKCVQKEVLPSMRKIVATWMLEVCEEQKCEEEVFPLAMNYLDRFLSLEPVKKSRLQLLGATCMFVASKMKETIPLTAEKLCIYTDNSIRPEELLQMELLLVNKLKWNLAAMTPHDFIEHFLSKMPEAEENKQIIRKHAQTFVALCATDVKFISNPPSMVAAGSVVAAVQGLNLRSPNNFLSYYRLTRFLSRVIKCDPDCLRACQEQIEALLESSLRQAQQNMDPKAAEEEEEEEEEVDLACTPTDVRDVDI

Row | Compound | IC50 (CDK4/CyclinD1; CDK4/CyclinD1, 200 μM ATP) [nM] | IC50 (CDK6/CyclinD3; CDK6/CyclinD3, 300 μM ATP) [nM] | IC50 (CDK2/CyclinE1; CDK2/CyclinE1, 100 μM ATP) [nM] | IC50 (T47D breast cancer cells; [2]) [nM] | IC50 [1, 3] [nM] | IC50 (T47D breast cancer cells; anti-proliferation, T47D cells) [nM] | IC50 ([1]; read-out: Phospho T47D Ser807 IC50, pRb Ser807 phosphorylation, T47D cells) [nM] | IC50 (T47D breast cancer cells; Homo sapiens, T47D) [nM] | IC50 ([1]; Homo sapiens, T47D, read-out: Phospho T47D Ser807 IC50) [nM] | IC50 (CDK4/CyclinD1; CDK4/CyclinD1) [nM] | IC50 (CDK6/CyclinD3; CDK6/CyclinD3) [nM] | IC50 (CDK2/CyclinE1; CDK2/CyclinE1) [nM]
1 | COc1nc(-c2nc(Nc3ccc(N4CCC(N(C)C)CC4=O)cn3)ncc2F)cc2c1nc(C)n2C(C)C (single isomer, unassigned) [Example 62-1, 4-(dimethylamino)-1-[6-[[5-fluoro-4-(1-isopropyl-4-methoxy-2-methyl-imidazo[4,5-c]pyridin-6-yl)pyrimidin-2-yl]amino]-3-pyridyl]piperidin-2-one] | < 10 | 10 to 100 | > 1000 | 100 to 500 | 100 to 500 |  |  |  |  |  |  | 
2 | COc1nc(-c2nc(Nc3ccc(N4CCC(N(C)C)CC4=O)cn3)ncc2F)cc2c1nc(C)n2C(C)C (single isomer, unassigned) [Example 62-2, 4-(dimethylamino)-1-[6-[[5-fluoro-4-(1-isopropyl-4-methoxy-2-methyl-imidazo[4,5-c]pyridin-6-yl)pyrimidin-2-yl]amino]-3-pyridyl]piperidin-2-one] | < 10 | 10 to 100 | > 1000 |  |  | < 100 | < 100 |  |  |  |  | 
3 | CNC1CCN(c2ccc(Nc3nccc(-c4ccn5ncc(C(C)C)c5c4)n3)nc2)C(=O)C1 (single isomer, unassigned) [Synthetic Example 205, 1-[6-[[4-(3-isopropylpyrazolo[1,5-a]pyridin-5-yl)pyrimidin-2-yl]amino]-3-pyridyl]-4-(methylamino)piperidin-2-one] | < 10 | < 10 | < 10 | < 100 | < 100 |  |  |  |  |  |  | 
4 | CC(C)c1cnn2ccc(-c3ccnc(Nc4ccc(N5CCCNC5=O)cn4)n3)cc12 [Synthetic Example 1] | < 10 | 10 to 100 | 100 to 1000 | < 100 | < 100 |  |  |  |  |  |  | 
5 | CC(C)c1cnn2ccc(-c3nc(Nc4ccc(N5CCNCC5=O)cn4)ncc3F)cc12 [Synthetic Example 29] | < 10 | 10 to 100 | 10 to 100 | < 100 | < 100 |  |  |  |  |  |  | 
6 | CC(C)c1cnn2ccc(-c3ccnc(Nc4ccc(N5CC(N(C)C)CC5=O)cn4)n3)cc12 (stereo not drawn) [Synthetic Example 39] | < 10 | 10 to 100 | 10 to 100 | < 100 | < 100 |  |  |  |  |  |  | 
7 | CC(C)c1cnn2ccc(-c3ccnc(Nc4ccc(N5CCN(C6CNC6)CC5=O)cn4)n3)cc12 [Synthetic Example 40] | < 10 | 10 to 100 | 10 to 100 |  |  |  |  | < 100 | < 100 |  |  | 
8 | CC(C)c1cnn2ccc(-c3nc(Nc4ccc(N5CCN(CCO)CCC5=O)cn4)ncc3F)cc12 [Synthetic Example 52] | < 10 | 10 to 100 | 10 to 100 |  | < 100 |  |  |  |  |  |  | 
9 | COc1nc(-c2ccnc(Nc3ccc4c(n3)CCN(C(=O)CN(C)C)C4)n2)cc2c1ncn2C(C)C [Synthetic Example 140] | < 10 | 10 to 100 | > 1000 |  | < 100 |  |  |  |  |  |  | 
10 | CCN1CCN(Cc2ccc(Nc3ncc(F)c(-c4cc(C)n5ncc(C(C)C)c5c4)n3)nc2)CC1 [compound 5] | 10 to 100 | 100 to 1000 |  | > 1000 | > 1000 |  |  |  |  |  |  | 
11 | COc1nc(-c2ccnc(Nc3ccc(N4CCC(N5CCOCC5)CC4=O)cn3)n2)cc2c1ncn2C(C)C (stereo not drawn) [compound 100] |  |  |  |  | 100 to 500 |  |  |  |  | < 10 | 10 to 100 | 100 to 1000
12 | COc1nc(-c2ccnc(Nc3ccc(N4CCNCC4=O)cc3F)n2)cc2c1ncn2C(C)C [compound 114] | < 10 | 10 to 100 | 10 to 100 |  | 100 to 500 |  |  |  |  |  |  | 
13 | COc1nc(-c2ccnc(Nc3ccc(N4CCNCC4=O)nc3)n2)cc2c1ncn2C(C)C [compound 119] | < 10 | 10 to 100 | 10 to 100 |  | 100 to 500 |  |  |  |  |  |  | 
14 | CCN1CCN(c2ccc(Nc3nccc(-c4cc5c(ncn5C(C)C)c(OC)n4)n3)nc2)C(=O)C1 [compound 134] | < 10 | 10 to 100 | 100 to 1000 |  | < 100 |  |  |  |  |  |  | 
15 | COc1nc(-c2nc(Nc3ccc(N4CCN(C5CCOCC5)CC4=O)cn3)ncc2F)cc2c1nc(C)n2C(C)C [compound 136] | < 10 | 10 to 100 | > 1000 |  | 100 to 500 |  |  |  |  |  |  | 
16 | COc1nc(-c2ccnc(Nc3ccc(N4CCN(C5COC5)CC4=O)cn3)n2)cc2c1ncn2C(C)C [compound 137] | < 10 | 10 to 100 | 100 to 1000 |  | < 100 |  |  |  |  |  |  | 
17 | CC(C)c1cnn2ccc(-c3ccnc(Nc4ccc(C(=O)N5CCC5)cc4)n3)cc12 [compound 169] | < 10 | 10 to 100 | < 10 |  | < 100 |  |  |  |  |  |  | 
18 | CC(C)(C)c1cnn2ccc(-c3ccnc(Nc4ccc(N5CCCC(N)C5=O)cc4)n3)cc12 (stereo not drawn) [compound 218] | < 10 | < 10 | < 10 |  | < 100 |  |  |  |  |  |  | 
19 | CN(C)C1CCCN(c2ccc(Nc3nccc(-c4cc(F)c5c(c4)C(C)(C)CO5)n3)nc2)C1=O (stereo not drawn) [compound 261] | < 10 | 10 to 100 | > 1000 |  | < 100 |  |  |  |  |  |  | 
20 | CC(C)n1cnc2c(F)nc(-c3ccnc(Nc4ccc(N5CCC(C)(N)CC5=O)cn4)n3)cc21 (stereo not drawn) [compound 271] | < 10 | < 10 | 10 to 100 |  | < 100 |  |  |  |  |  |  | 
21 | CC(C)n1cnc2c(F)nc(-c3ccnc(Nc4ccc(N5CCCNC5=O)cn4)n3)cc21 [compound 275] | < 10 | < 10 | 100 to 1000 |  | < 100 |  |  |  |  |  |  | 
22 | CCN1CCN(c2ccc(Nc3nccc(-c4cc5c(ncn5C(C)C)c(F)n4)n3)nc2)CC1 [compound 289] | < 10 | < 10 | 100 to 1000 |  | < 100 |  |  |  |  |  |  | 
23 | COc1nc(-c2ccnc(Nc3ccc(N4CCC(C)(N)CC4=O)cn3)n2)cc2c1ncn2C(C)C (stereo not drawn) [compound 313] |  |  |  |  | < 100 |  |  |  |  | 10 to 100 | < 10 | 100 to 1000
